According to patent publication US20230352149A1, “Single-cell morphology analysis for disease profiling and drug discovery” (Universität Heidelberg, priority 2020, published 2023):

Tested on: cardiomyocytes
Experiment: live cell imaging of changes in cell areas after stimulation (FIG. 17A)
Assay type: cell-based
Conditions: for changes in cell areas vs Ctrl: after 9 h, Ctrl vs PE/Ins; for early dynamics of cell area: early dynamics (<2.5 h), compared with ctrl (no increase)
Experimental: Image acquisition can be performed with a microscope. Preferably, this is performed at the end of the experiment. In other embodiments, the image acquisition is performed during the course of the experiment to analyze the cell response over time (video, live cell imaging).
In order to perform time series analysis, imaging of cells can happen multiple times with live cell fluorescent dyes. This allows visualizing the dynamics of cell morphological changes over time. Experiments have shown that certain dynamics leads to a characteristic set of meta-features associated with certain diagnoses, prognoses, and/or individualized therapy.

Molecule | changes in cell areas vs Ctrl | early dynamics of cell area
CNC[C@H](O)c1cccc(O)c1 [PE, phenylephrine] | differences following stimulation can be observed | steep increase
insulin | differences following stimulation can be observed | less steep increase
